Values of other authors, collected in patent publication US8039023B1, “Composition for relief of menstrual cramps and muscle cramps” (priority 2009, dated 2011).

Tested on: pain and muscle cramping symptoms
Details: prior art, various brands, typical

Q: Which “time after ingestion to reduced discomfort from pain and muscle cramping symptoms” value does the source give for CC(C)Cc1ccc(C(C)C(=O)O)cc1 (stereo not drawn) [ibuprofen] here?
A: Its value is “twenty to forty”.

Q: Which “time after ingestion to reduced discomfort from pain and muscle cramping symptoms” value does the source give for CC(=O)Oc1ccccc1C(=O)O [aspirin] here?
A: The value was “twenty to forty”.

Q: With CC(=O)Nc1ccc(O)cc1 [acetaminophen] as the compound, how does the “time after ingestion to reduced discomfort from pain and muscle cramping symptoms” value read?
A: Its value is “twenty to forty”.
